[ ]: non-standard residue; d: D form. Aib = CC(C)(N)C(=O)O
How the values were obtained:
C57BL/6 mice [1] = assay: Vasculitis model in mice (LPS / TNF-α intradermal); assay type: in vivo; details: s.c.
Protocol: C57BL/6 mice receive an intradermal injection of LPS. On the following day vasculitis is induced by intradermal injection of TNF-α. In addition Evan's blue is injected. 24 hours following the injection of TNF-α mice are scarified. Ear thickness is measured and the degree of vasculitis is assessed by counting petechiae. The content of Evan's blue in the ear tissue is a marker for vascular permeability. Ears are analyzed by histology, FACS and RT-qPCR. […] In histology a reduced inflammatory infiltrate was seen.

C57BL/6 mice [2] = assay: DSS-induced colitis in mice; assay type: in vivo; details: i.p.
Protocol: Colitis is induced by treatment of C57BL/6 mice with 2.5% dextran sulfate (DSS) in the drinking water for 7 days. Mice are treated with the test item. Weight is monitored daily. At day 8 mice are scarified. A haemocult test is performed. The size of the colon is measured. Colitis is determined using a scoring system in H&E stains. mRNA expression in colon samples is analyzed by RT-qPCR.

Question: For H-Phe-Pro-[Aib]-OH [Example 13], which ear thickness (C57BL/6 mice [1]) is on record?
Answer: reduction

Question: What about the “inflammatory infiltrate in histology” value (C57BL/6 mice [1]) of the same substance?
Answer: reduced

Question: What about the number of petechiae (C57BL/6 mice [1]) of the same substance?
Answer: reduced number

Question: What about the colon size (C57BL/6 mice [2]) of the same substance?
Answer: partly normalized

Question: And the disease in histology (C57BL/6 mice [2])?
Answer: amelioration

Question: And the “mRNA expression of LY-6G, MPO, IFN-γ, IL-6 and TNF-α (colon)” value (C57BL/6 mice [2]; compared to vehicle control)?
Answer: reduced

Question: What about the weight loss (C57BL/6 mice [2]; compared to vehicle control) of the same substance?
Answer: decreased
